Source: patent publication US10124004B2, “Pyrido[3,4-d]pyrimidine derivative and pharmaceutically acceptable salt thereof” (Teijin Pharma Limited, priority 2015, dated 2018)

Assays:
CDK4/cyclin D3 = target: T1, CDK4/cyclin D3 (Homo sapiens, UniProt P11802); assay: Human CDK4/cyclin D3 inhibitory activity (QS S Assist CDK4/Cyclin D3_FP Kit, IMAP fluorescence polarization); type: biochemical; conditions: 50% inhibitory concentration against CDK4/cyclin D3, given as class symbol
T1 construct: purchased Carna Biosciences, Inc. QS S Assist CDK4/Cyclin D3_FP Kit
T1 sequence (P11802 whole entry): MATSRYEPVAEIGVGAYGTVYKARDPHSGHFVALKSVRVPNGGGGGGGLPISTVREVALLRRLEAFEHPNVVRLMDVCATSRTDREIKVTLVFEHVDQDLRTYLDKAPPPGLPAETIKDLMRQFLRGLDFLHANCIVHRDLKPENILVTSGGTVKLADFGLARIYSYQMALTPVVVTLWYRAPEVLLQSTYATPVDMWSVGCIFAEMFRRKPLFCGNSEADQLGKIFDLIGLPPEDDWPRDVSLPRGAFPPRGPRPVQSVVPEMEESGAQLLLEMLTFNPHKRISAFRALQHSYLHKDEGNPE
T1 sequence (P30281 whole entry partner): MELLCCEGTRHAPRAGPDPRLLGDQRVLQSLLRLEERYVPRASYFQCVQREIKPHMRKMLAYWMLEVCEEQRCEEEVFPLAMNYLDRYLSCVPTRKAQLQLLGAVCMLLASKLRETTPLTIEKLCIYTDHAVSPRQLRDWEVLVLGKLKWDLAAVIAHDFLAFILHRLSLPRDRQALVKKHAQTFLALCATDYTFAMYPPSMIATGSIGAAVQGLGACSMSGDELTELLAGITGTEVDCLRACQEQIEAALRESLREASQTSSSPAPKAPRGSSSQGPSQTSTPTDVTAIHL
In short: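 Percent inhibition, relative to DMSO with and without enzyme, was curve-fitted to give IC50 from polarization (ex 485, em 535 nm). The 45-min room-temperature reaction used 12.5-25 ng/well enzyme, kit ATP/substrate/metal mix, and HEPES pH 7.4 buffer with Tween20 and DTT, followed by 30-min IMAP binding in the dark.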

CDK2/cyclin A2 = target: T2, CDK2/cyclin A2 (Homo sapiens, UniProt P24941); assay: Human CDK2/cyclin A2 inhibitory activity (QS S Assist CDK2/Cyclin A2_FP Kit, IMAP fluorescence polarization); type: biochemical; conditions: 50% inhibitory concentration against CDK2/cyclin A2, given as class symbol
T2 construct: purchased Carna Biosciences, Inc. QS S Assist CDK2/Cyclin A2_FP Kit
In short: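 Kinase activity read as fluorescence polarization (485/535 nm) after phosphorylated fluorescent substrate binds IMAP reagent (30 min, RT, dark). Enzyme (2.5 ng/well) reacted 60 min at RT with ATP/substrate/metal in HEPES pH 7.4 buffer with Tween 20 and DTT; no-enzyme wells define 0% activity; IC50 by curve fit.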

Row | Compound | IC50 (CDK4/cyclin D3) [nM] | IC50 (CDK2/cyclin A2) [nM]
1 | CCCNc1nc(C(F)F)cc2cnc(Nc3ccc(N4CCNCC4=O)cn3)nc12 [Compound 821] | < 10 | 10 to 100
2 | O=C1CNCCN1c1ccc(Nc2ncc3cc(C(F)F)nc(NC4CCOCC4)c3n2)nc1 [Compound 822] | < 10 | 10 to 100
3 | O=C1CNCCN1c1ccc(Nc2ncc3cc(C(F)F)nc(NCC4CCOCC4)c3n2)nc1 [Compound 823] | 10 to 100 | ≥ 100
4 | Cc1nc(Nc2ncc3cc(C4CCOC4)nc(NC(C)C)c3n2)ccc1N1CCNCC1=O (stereo not shown) [Compound 824] | < 10 | ≥ 100
5 | CC(C)Nc1nc([C@@H](C)O)cc2cnc(Nc3ccc(N4CC5CCCN5CC4=O)cn3)nc12 (stereo partly shown) [Compound 825] | < 10 | ≥ 100
6 | CC(C)CNc1nc([C@@H](C)O)cc2cnc(Nc3ccc(N4CCNCC4=O)cn3)nc12 [Compound 826] | < 10 | ≥ 100
7 | CC(C)CNc1nc([C@@H](C)O)cc2cnc(Nc3ccc(N4CCNCC4)nn3)nc12 [Compound 827] | < 10 | ≥ 100
8 | CC(C)Nc1nc([C@@H](C)O)cc2cnc(Nc3ccc(N4CCC(CCC(=O)O)CC4)nn3)nc12 [Compound 828] | 10 to 100 | ≥ 100
9 | CC(C)Nc1nc([C@@H](C)O)cc2cnc(Nc3ccc(C4CCN(CC(=O)O)CC4)cn3)nc12 [Compound 829] | < 10 | ≥ 100
10 | C[C@@H](O)c1cc2cnc(Nc3ccc(C4CCN(CC(=O)O)CC4)cn3)nc2c(NC(C)(C)C)n1 [Compound 830] | < 10 | ≥ 100
11 | CC(C)Nc1nc([C@@H](C)O)cc2cnc(Nc3ccc(N4CCN(CC(=O)O)CC4=O)cn3)nc12 [Compound 833] | < 10 | ≥ 100
12 | C[C@@H](O)c1cc2cnc(Nc3ccc(C4CCN(C(C)(C)C(=O)O)CC4)cn3)nc2c(NC(C)(C)C)n1 [Compound 834] | < 10 | ≥ 100
13 | CC(C)Nc1nc([C@@H](C)O)cc2cnc(Nc3ccc(N4CCCC(C(=O)O)C4)cn3)nc12 (stereo partly shown) [Compound 835] | 10 to 100 | ≥ 100
14 | CC(C)Nc1nc([C@@H](C)O)cc2cnc(Nc3ccc(N4CCC(C(=O)O)CC4)cn3)nc12 [Compound 836] | 10 to 100 | ≥ 100
15 | C[C@@H](O)c1cc2cnc(Nc3ccc(CN4CCC(C(=O)O)CC4)cn3)nc2c(NC(C)(C)C)n1 [Compound 837] | < 10 | 10 to 100
16 | CO[C@H](C)c1cc2cnc(Nc3ccc(NC(=O)C4CCCCN4)cn3)nc2c(NC(C)C)n1 (stereo partly shown) [Compound 838] | < 10 | ≥ 100
17 | C[C@H]1CC[C@H](Nc2nc(C(F)F)cc3cnc(Nc4ccc(CN5CCC(C(=O)O)CC5)cn4)nc23)CC1 [Compound 839] | < 10 | ≥ 100
18 | O=C1CNCCN1c1ccc(Nc2ncc3c(Cl)c(C(F)F)nc(NCC4CCOCC4)c3n2)nc1 [Compound 840] | ≥ 100 | ≥ 100
19 | CC(C)Nc1nc([C@@H](C)O)c(Cl)c2cnc(Nc3ccc(N4CCN(CCO)CCC4=O)cn3)nc12 [Compound 841] | < 10 | ≥ 100
20 | CO[C@H](C)c1nc(NC(C)C)c2nc(Nc3ccc(C(=O)N4CCNCC4)cn3)ncc2c1Cl [Compound 842] | 10 to 100 | ≥ 100
21 | CCCCNc1nc([C@@H](C)O)cc2cnc(Nc3ccc(CN4CCN(CCO)CC4)cn3)nc12 [Compound 845] | < 10 | ≥ 100
22 | CC(C)CNc1nc([C@@H](C)O)cc2cnc(Nc3ccc(CN4CCN(CCO)CC4)cn3)nc12 [Compound 846] | < 10 | ≥ 100
23 | C[C@@H](O)c1cc2cnc(Nc3ccc(CN4CCN(CCO)CC4)cn3)nc2c(NCC2CCOCC2)n1 [Compound 847] | < 10 | ≥ 100
24 | O=C1CNCCN1c1ccc(Nc2ncc3cc(C(F)F)nc(N[C@H]4CCCOC4)c3n2)nc1 [Compound 849] | < 10 | 10 to 100
25 | CC(C)Nc1nc(C(F)F)c(Cl)c2cnc(Nc3ccc(N4CCNCC4=O)cn3)nc12 [Compound 850] | 10 to 100 | 10 to 100

Row | Compound | IC50 (CDK4/cyclin D3) [nM] | IC50 (CDK2/cyclin A2) [nM]
26 | Cc1nc(Nc2ncc3c(Cl)c(C(F)F)nc(NC(C)C)c3n2)ccc1N1CCNCC1=O [Compound 851] | 10 to 100 | ≥ 100
27 | CCCNc1nc([C@@H](C)OC)cc2cnc(Nc3ccc(CN4CCN(CCO)CC4)cn3)nc12 [Compound 852] | < 10 | ≥ 100
28 | CCCCNc1nc([C@@H](C)OC)cc2cnc(Nc3ccc(CN4CCN(CCO)CC4)cn3)nc12 [Compound 853] | < 10 | ≥ 100
29 | CCCCNc1nc([C@@H](C)OC)cc2cnc(Nc3ccc(CN4CCNCC4)cn3)nc12 [Compound 854] | < 10 | ≥ 100
30 | CCCCNc1nc([C@@H](C)OC)cc2cnc(Nc3ccc(N4CCNCC4)nn3)nc12 [Compound 855] | < 10 | ≥ 100
31 | O=C1CNCCN1Cc1ccc(Nc2ncc3cc(C(F)F)nc(N[C@H]4CCCOC4)c3n2)nc1 [Compound 856] | < 10 | ≥ 100
32 | CCCNc1nc([C@@H](C)OC)cc2cnc(Nc3ccc(CN4C[C@H]5C[C@@H]4CN5)cn3)nc12 [Compound 857] | < 10 | ≥ 100
33 | CCCNc1nc([C@@H](C)OC)cc2cnc(Nc3ccc(N4C[C@H]5C[C@@H]4CN5)nn3)nc12 [Compound 858] | < 10 | ≥ 100
34 | CO[C@H](C)c1cc2cnc(Nc3ccc(N4C[C@H]5C[C@@H]4CN5)nn3)nc2c(NC(C)C)n1 [Compound 859] | < 10 | ≥ 100
35 | CO[C@H](C)c1cc2cnc(Nc3ccc(CN4CCN(CCO)CC4)cn3)nc2c(N[C@H]2CCCOC2)n1 [Compound 860] | < 10 | ≥ 100
36 | CO[C@H](C)c1cc2cnc(Nc3ccc(CN4CCNCC4)cn3)nc2c(NCC(C)C)n1 [Compound 861] | < 10 | ≥ 100
37 | CO[C@H](C)c1cc2cnc(Nc3ccc(N4CCNCC4)nn3)nc2c(NCC(C)C)n1 [Compound 862] | < 10 | ≥ 100
38 | CC(C)Nc1nc([C@@H](C)O)cc2cnc(Nc3ccc(N4CCNCC4C(F)(F)F)nn3)nc12 (stereo partly shown) [Compound 863] | < 10 | ≥ 100
39 | CC(C)Nc1nc(C(C)O)cc2cnc(Nc3ccc(OC4CNCCC4F)cn3)nc12 (stereo not shown) [Compound 864] | < 10 | ≥ 100
40 | CC(C)Nc1nc([C@@H](C)O)cc2cnc(Nc3ccc(OCCNS(C)(=O)=O)cn3)nc12 [Compound 867] | < 10 | ≥ 100
41 | CNCCOc1ccc(Nc2ncc3cc([C@@H](C)O)nc(N(C)[C@H]4CCCOC4)c3n2)nc1 [Compound 868] | < 10 | ≥ 100
42 | CC(C)N(C)c1nc([C@@H](C)O)cc2cnc(Nc3ccc(N4CCNCC4=O)cn3)nc12 [Compound 871] | 10 to 100 | ≥ 100
43 | C[C@@H](O)c1cc2cnc(Nc3ccc(N4CCNCC4=O)cn3)nc2c(N(C)[C@H]2CCCOC2)n1 [Compound 872] | 10 to 100 | ≥ 100
44 | CO[C@H](C)c1cc2cnc(Nc3ccc(OC4CCNCC4)cn3)nc2c(NC2CCOCC2)n1 [Compound 873] | < 10 | ≥ 100
45 | CO[C@H](C)c1cc2cnc(Nc3ccc(OC4CCNCC4)cn3)nc2c(N[C@H]2CCCOC2)n1 [Compound 874] | < 10 | ≥ 100
46 | CC(C)Nc1nc(C2CCOC2)cc2cnc(Nc3ccc(N4CCNCC4)nn3)nc12 (stereo not shown) [Compound 877] | < 10 | ≥ 100
47 | c1cc(N2CCNCC2)nnc1Nc1ncc2cc(C3CCOC3)nc(N[C@H]3CCCOC3)c2n1 (stereo partly shown) [Compound 878] | < 10 | ≥ 100
48 | CC1(c2cc3cnc(Nc4ccc(N5CCNCC5)nn4)nc3c(N[C@H]3CCCOC3)n2)COC1 [Compound 880] | < 10 | ≥ 100
49 | CC(C)Nc1nc(C2CCOC2)cc2cnc(Nc3ccc(CN4CCNCC4)cn3)nc12 (stereo not shown) [Compound 881] | < 10 | ≥ 100
50 | c1cc(Nc2ncc3cc(C4CCOC4)nc(N[C@H]4CCCOC4)c3n2)ncc1CN1CCNCC1 (stereo partly shown) [Compound 882] | < 10 | ≥ 100
